Laboratory results reported in ChEMBL document CHEMBL1130781, “Structure-based design and synthesis of a series of hydroxamic acids with a quaternary-hydroxy group in P1 as inhibitors of matrix metalloproteinases” (Bioorg Med Chem Lett, 1998).
pKi: −log10 of the molar value.

What was measured:
[1] = biological target: T1, Interstitial collagenase (Homo sapiens, UniProt P03956); test: Binding affinity was evaluated against matrix metalloprotease-1
T1 sequence (P03956 whole entry): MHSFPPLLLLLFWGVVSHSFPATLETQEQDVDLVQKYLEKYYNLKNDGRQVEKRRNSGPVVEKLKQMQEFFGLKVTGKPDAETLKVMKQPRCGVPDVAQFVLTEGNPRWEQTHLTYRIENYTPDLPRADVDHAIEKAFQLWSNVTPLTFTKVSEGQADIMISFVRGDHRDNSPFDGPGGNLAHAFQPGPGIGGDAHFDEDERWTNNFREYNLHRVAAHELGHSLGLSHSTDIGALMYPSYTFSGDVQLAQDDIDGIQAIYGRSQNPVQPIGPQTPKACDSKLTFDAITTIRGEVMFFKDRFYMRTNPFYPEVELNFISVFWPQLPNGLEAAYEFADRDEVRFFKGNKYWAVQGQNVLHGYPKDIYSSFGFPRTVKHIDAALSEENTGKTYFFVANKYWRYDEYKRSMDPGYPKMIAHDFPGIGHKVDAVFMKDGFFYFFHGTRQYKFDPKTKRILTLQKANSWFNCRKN

[2] = biological target: Matrix metalloproteinase-9 (Homo sapiens, UniProt P14780); test: Binding affinity was evaluated against matrix metalloprotease-9
Matrix metalloproteinase-9, sequence (P14780 whole entry): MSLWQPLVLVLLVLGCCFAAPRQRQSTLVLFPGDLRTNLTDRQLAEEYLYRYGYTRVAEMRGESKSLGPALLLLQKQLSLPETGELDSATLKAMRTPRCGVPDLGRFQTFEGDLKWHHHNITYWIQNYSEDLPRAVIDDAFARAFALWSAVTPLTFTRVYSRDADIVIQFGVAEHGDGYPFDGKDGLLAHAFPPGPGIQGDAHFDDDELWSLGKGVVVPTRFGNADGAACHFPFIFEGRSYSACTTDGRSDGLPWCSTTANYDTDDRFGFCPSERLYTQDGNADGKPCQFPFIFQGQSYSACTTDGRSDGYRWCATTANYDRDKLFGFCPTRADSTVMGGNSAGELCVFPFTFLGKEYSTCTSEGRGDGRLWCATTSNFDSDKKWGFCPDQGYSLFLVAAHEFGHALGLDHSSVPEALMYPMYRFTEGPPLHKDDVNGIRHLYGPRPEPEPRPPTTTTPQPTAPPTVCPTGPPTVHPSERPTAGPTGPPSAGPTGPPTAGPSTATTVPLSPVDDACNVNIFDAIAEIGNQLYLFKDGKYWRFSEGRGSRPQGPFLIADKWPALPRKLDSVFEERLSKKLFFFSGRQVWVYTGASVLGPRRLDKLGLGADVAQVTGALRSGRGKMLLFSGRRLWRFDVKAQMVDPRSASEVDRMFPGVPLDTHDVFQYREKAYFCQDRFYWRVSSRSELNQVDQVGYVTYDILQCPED

[3] = biological target: Stromelysin-1 (Homo sapiens, UniProt P08254); test: Binding affinity against human matrix metalloprotease-3.
Stromelysin-1, sequence (P08254 whole entry): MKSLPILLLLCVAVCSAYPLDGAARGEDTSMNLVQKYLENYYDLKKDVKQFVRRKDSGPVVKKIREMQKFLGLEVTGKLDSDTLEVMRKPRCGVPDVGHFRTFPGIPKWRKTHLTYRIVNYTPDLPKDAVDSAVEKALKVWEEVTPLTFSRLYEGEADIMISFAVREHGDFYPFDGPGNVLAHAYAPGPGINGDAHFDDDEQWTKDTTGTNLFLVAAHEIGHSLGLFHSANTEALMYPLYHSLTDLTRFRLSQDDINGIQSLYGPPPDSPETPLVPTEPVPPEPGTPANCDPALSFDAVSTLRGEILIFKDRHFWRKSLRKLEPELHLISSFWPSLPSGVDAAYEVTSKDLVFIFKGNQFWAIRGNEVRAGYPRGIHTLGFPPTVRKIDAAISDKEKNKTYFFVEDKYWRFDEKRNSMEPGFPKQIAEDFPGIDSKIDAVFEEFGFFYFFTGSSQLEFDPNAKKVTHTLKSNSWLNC

Row | SMILES | pKi [1] | pKi [2] | pKi [3]
1 | CNC(=O)[C@@H](NC(=O)[C@H](CCCc1ccccc1)[C@@](C)(O)C(=O)NO)C(C)(C)C | 7.89 | > 9.00 | 7.89
2 | C[C@@H](NC(=O)[C@H](CCCCN)NC(=O)[C@H](CCCc1ccccc1)[C@@](C)(O)C(=O)NO)c1ccccc1 | 6.55 | 6.83 | 6.77
3 | CNC(=O)[C@H](CCCNS(=O)(=O)N(C)C)NC(=O)[C@H](CCCc1ccccc1)[C@@](C)(O)C(=O)NO | 7.66 | 8.70 | 7.62
4 | CNC(=O)[C@H](CCCCN)NC(=O)[C@H](CCCc1ccccc1)[C@@](C)(O)C(=O)NO | 7.82 | > 9.00 | 7.49
5 | CNC(=O)[C@H](CCCNC(=O)OC(C)(C)C)NC(=O)[C@H](CCCc1ccccc1)[C@@](C)(O)C(=O)NO | 7.80 | 8.70 | 7.89
6 | CNC(=O)[C@H](CCCNC(=O)N1CCOCC1)NC(=O)[C@H](CCCc1ccccc1)[C@@](C)(O)C(=O)NO | 7.28 | 8.40 | 7.15
7 | C[C@](O)(C(=O)NO)[C@@H](CCCc1ccccc1)C(=O)N[C@@H](CCCCN)C(=O)NCCc1ccccc1 | 7.60 | 9.00 | 7.55

Results, then the compound that gave them:

Row | pKi [1] | pKi [2] | pKi [3] | SMILES
8 | – | – | < 5.00 | CNC(=O)[C@H](Cc1ccc(OC)cc1)NC(=O)[C@H](CC(C)C)[C@](C)(O)C(=O)NO
9 | – | – | < 5.00 | CNC(=O)[C@H](Cc1ccc(OC)cc1)NC(=O)[C@H](CCc1ccccc1)[C@](C)(O)C(=O)NO
10 | 7.07 | 8.30 | 6.28 | CNC(=O)[C@H](Cc1ccc(OC)cc1)NC(=O)[C@H](Cc1ccccc1)[C@@](C)(O)C(=O)NO
11 | 7.74 | 8.30 | 6.99 | CNC(=O)[C@H](CCCN)NC(=O)[C@H](CCCc1ccccc1)[C@@](C)(O)C(=O)NO
12 | 9.22 | > 9.00 | 7.89 | CNC(=O)[C@H](Cc1ccc(OC)cc1)NC(=O)[C@H](CC(C)C)[C@@](C)(O)C(=O)NO
13 | 8.70 | > 9.00 | 8.52 | CNC(=O)[C@H](Cc1ccc(OC)cc1)NC(=O)[C@H](CCCc1ccccc1)[C@@](C)(O)C(=O)NO
14 | – | – | < 5.00 | CNC(=O)[C@H](Cc1ccc(OC)cc1)NC(=O)[C@H](Cc1ccccc1)[C@](C)(O)C(=O)NO
15 | 6.78 | < 6.67 | 7.60 | C[C@](O)(C(=O)NO)[C@@H](CCCc1ccccc1)C(=O)N[C@@H](Cc1ccccc1)C(=O)O
16 | 7.48 | 8.70 | 7.60 | CNC(=O)[C@H](Cc1ccc(OC)cc1)NC(=O)[C@H](CCc1ccccc1)[C@@](C)(O)C(=O)NO
17 | 6.70 | 7.47 | 7.00 | CC(C)(C)OC(=O)[C@H](Cc1ccccc1)NC(=O)[C@H](CCCc1ccccc1)[C@@](C)(O)C(=O)NO
